According to PubChem BioAssay AID1845199 (Molecular Pharmacology Branch, DTP, NCI, 2023):

Test system: 556581-035-R-J1 tumor spheroid viability, % test/control
Experiment: Anticancer human tumor 556581-035-R-J1 patient-derived ovarian carcinoma cell line growth inhibition
Conditions: spheroids with HUVEC and MSC; for IC50: curve of first compound; for viability, T/C: stronger effect = lower value
In short: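 Complex spheroids of malignant cells with endothelial cells and mesenchymal stem cells; agents alone or combined, from near clinical Cmax (or 10 microM if unknown) down in half-log steps, 0.25% DMSO final.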

[1] = second compound 1 µM, first compound 0.0316 µM
[2] = second compound 1 µM, first compound 0.1 µM
[3] = second compound 1 µM, first compound 0.316 µM
[4] = second compound 1 µM, first compound 1 µM
[5] = second compound 1 µM, first compound 3.16 µM
[6] = second compound 1 µM, first compound 10 µM
[7] = second compound 3.16 µM, first compound 0.0316 µM
[8] = second compound 3.16 µM, first compound 0.1 µM
[9] = second compound 3.16 µM, first compound 0.316 µM
[10] = second compound 3.16 µM, first compound 1 µM
[11] = second compound 3.16 µM, first compound 3.16 µM
[12] = second compound 3.16 µM, first compound 10 µM
[13] = second compound 10 µM, first compound 0.0316 µM
[14] = second compound 10 µM, first compound 0.1 µM
[15] = second compound 10 µM, first compound 0.316 µM
[16] = second compound 10 µM, first compound 1 µM
[17] = second compound 10 µM, first compound 3.16 µM
[18] = second compound 10 µM, first compound 10 µM
[19] = second compound 31.6 µM, first compound 0.0316 µM
[20] = second compound 31.6 µM, first compound 0.1 µM
[21] = second compound 31.6 µM, first compound 0.316 µM
[22] = second compound 31.6 µM, first compound 1 µM
[23] = second compound 31.6 µM, first compound 3.16 µM
[24] = second compound 31.6 µM, first compound 10 µM
[25] = second compound 100 µM, first compound 0.0316 µM
[26] = second compound 100 µM, first compound 0.1 µM
[27] = second compound 100 µM, first compound 0.316 µM
[28] = second compound 100 µM, first compound 1 µM
[29] = second compound 100 µM, first compound 3.16 µM
[30] = second compound 100 µM, first compound 10 µM
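Note: spheroids exposed to compounds for 7 days before viability read.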

Compound	IC50 (second compound 1 µM) [µM]	IC50 (second compound 3.16 µM) [µM]	IC50 (second compound 10 µM) [µM]	IC50 (second compound 31.6 µM) [µM]	IC50 (second compound 100 µM) [µM]	viability, T/C [1] [%]	viability, T/C [2] [%]	viability, T/C [3] [%]	viability, T/C [4] [%]	viability, T/C [5] [%]	viability, T/C [6] [%]	viability, T/C [7] [%]	viability, T/C [8] [%]	viability, T/C [9] [%]	viability, T/C [10] [%]	viability, T/C [11] [%]	viability, T/C [12] [%]	viability, T/C [13] [%]	viability, T/C [14] [%]	viability, T/C [15] [%]	further results
CC(C)n1c(=O)n(C)c2cnc3cc(F)c(-c4ccc(OCCCN5CCCCC5)nc4)cc3c21 + Cn1nnc2c(C(N)=O)ncn2c1=O	> 10	> 10	> 10	> 10	> 10	109	109	109	106	98.5	70.2	101	112	101	112	96.6	62.3	102	109	105	viability, T/C [16]: 104%; viability, T/C [17]: 95.5%; viability, T/C [18]: 67.3%; viability, T/C [19]: 108%; viability, T/C [20]: 106%; viability, T/C [21]: 103%; viability, T/C [22]: 112%; viability, T/C [23]: 92.7%; viability, T/C [24]: 65.8%; viability, T/C [25]: 105%; viability, T/C [26]: 106%; viability, T/C [27]: 99.6%; viability, T/C [28]: 101%; viability, T/C [29]: 90.1%; viability, T/C [30]: 69.1%
COc1ccc([C@@H](O)c2cc(-c3ncnc4cc(N5CCOCC5)ccc34)c(F)cc2Cl)nn1 + Cn1nnc2c(C(N)=O)ncn2c1=O	2.65	2.55	3.06	2.81	3.03	115	111	100	70.2	47.7	34.2	105	114	102	71	47.4	36.2	126	121	113	viability, T/C [16]: 76%; viability, T/C [17]: 51.9%; viability, T/C [18]: 38.2%; viability, T/C [19]: 125%; viability, T/C [20]: 123%; viability, T/C [21]: 114%; viability, T/C [22]: 76.9%; viability, T/C [23]: 48.5%; viability, T/C [24]: 36.2%; viability, T/C [25]: 129%; viability, T/C [26]: 122%; viability, T/C [27]: 117%; viability, T/C [28]: 76.8%; viability, T/C [29]: 51.6%; viability, T/C [30]: 39.3%
